The subject of data set [1] is rifampin-resistant S. aureus isolated from diseased animals. In kind it is cell-based, Staphylococcus aureus. The following applies: range over the 13 rifampin-resistant strains. The protocol: The antibacterial effect of the rifamycin derivative (1) against rifampin-resistant Staphylococcus aureus bacterial strains was determined. The tested bacterial strains were isolated from a variety of animal diseases as well as laboratory strains.
All bacteria were maintained on 3 mm glass beads immersed in trypticase soy broth (BBL Microbiology Systems, Cockeysville, Md.) with 10% glycerol and held at −70° C. until revived. Prior to testing, the organisms were subcultured on tryptose blood agar base (Difco, Detroit, Mich.) supplemented with 5% sheep blood for 24 hours at 35° C.
The compounds were dissolved in 95% ethanol and diluted to 10% ethanol in sterile, distilled water except for the compounds used in the in vivo testing where saline was used to dilute the original ethanol/drug suspension. Further dilutions were conducted in water or saline.
MICs were determined using the microbroth dilution method. In addition to the test organisms, the following quality control strain also was tested: Staphylococcus aureus ATCC 29213. The results are shown in Table 5, wherein R is the alkyl group R in the rifamycin derivative (1).

The next data set can be described thus: Oral toxicity in mice. In kind it is in vivo. The following applies: orally administered to mice, 1,000 mg/kg.
Data set [2] relates to Staphylococcus aureus B83-1 strain (derived from Newbould 305). Briefly: Therapeutic test in bovine mammary glands with experimental mastitis. It counts as in vivo, Holstein dairy cow. The protocol: As the rifamycin derivative (1), a compound A wherein R is methyl group, i. e. R≡ CH3, was examined for its therapeutic effect on bovine mastitis as follows.
The therapeutic test for infection in bovine mammary glands was carried out by inoculating […] of Staphylococcus [Staphylococcus aureus B83-1 strain (derived from Newbould 305)] into one mammary gland of a Holstein dairy cow (2-5 years old) to cause experimental mastitis.
To one mammary gland of each cow in a treated group, the compound A used in the present invention was administered (infused through the lactiferous duct) in an amount of 50 mg in 10 ml of benzyl alcohol per day successively for two days, twenty-one days after the infection. To one mammary gland of each cow in a control group, benzyl alcohol was administered in an amount of 10 ml per day in the same manner as in the treated group. The therapeutic effect of the compound A was examined by counting colony forming units (CFUs) of Staphylococcus in 1 ml of milk obtained from a cow subjected to the test. Comparing the above two groups, the therapeutic effect of the compound A on bovine mastitis was evaluated.
Staphylococcus was inoculated into forty-four mammary glands of eleven cows. Twenty-one days later, the number of mammary glands wherein Staphylococcus was separated from milk, i.e. number of mammary glands with mastitis, was counted. […]

Molecules are shown by their SMILES.

On to `COC1/C=C/OC2(C)Oc3c(C)c(O)c4c(=O)c(c5oc6cc(N7CCN(C)CC7)cc(O)c6nc-5c4c3C2=O)NC(=O)/C(C)=C\C=C\C(C)C(O)C(C)C(O)C(C)C(OC(C)=O)C1C` (stereo not shown) [R = methyl], for which, in data set [1], the “MIC Range” value was in the range of 0.06 to 4.0 µg/mL. The toxicity entry in the data set “Oral toxicity in mice” was “did not show any toxicity”. Besides, the curing ratio in data set [2] (cow, 50 mg per day for two days infused through the lactiferous duct, twenty-one days after infection) is on record as 64%. In addition, the “mammary glands negative (at most ten CFU per ml milk) in all the examined days” value in data set [2] (of twenty-two treated mammary glands, 50 mg in 10 ml benzyl alcohol per day for two days via lactiferous duct, 7-28 days after administration) is reported as “fourteen”.

Values taken from patent US6486161B1, “Use of rifamycin derivative for treating mastitis in a domestic animal” (priority 2000, dated 2002).
